Experimental data as given in patent US4910302A, “Psychotropic polycyclic imides” (American Home Products Corporation, priority 1988, dated 1990).

Legend:
5-HT1A receptor = details: cited from earlier work
dopamine D-2 receptor = target: T1, dopamine D-2 receptor (Rattus norvegicus, UniProt P61169); assay: dopamine D-2 receptor binding, displacement of 3H-spiroperidol, homogenized limbic brain tissue
T1 construct: from tissue; host or cells: homogenized limbic brain tissue
Description: High affinity for the dopamine D-2 receptor was established by the standard experimental test procedure of Fields et al., Brain Res., 136 578 (1977) and Yamamura et al., eds., Neurotransmitter Receptor Binding, Raven Press, N.Y. (1978) wherein homogenized limbic brain tissue is incubated with ^3 H-spiroperidol and various concentrations of test compound, filtered and washed and shaken with Hydrofluor scintillation cocktail (National Diagnostics) and counted in a Packard 460 CD scintillation counter.

[1] = target: T2, serotonin 5-HT1A receptor (Rattus norvegicus, UniProt P19327); assay: serotonin 5-HT1A receptor binding, displacement of [3H] 8-OHDPAT; design: following the procedure of Hall et al., J. Neurochem; 44 1685 (1985); from tissue; details: for inhibition at 0.1 µM: as marked beside the value
T2 sequence (P19327 1-422): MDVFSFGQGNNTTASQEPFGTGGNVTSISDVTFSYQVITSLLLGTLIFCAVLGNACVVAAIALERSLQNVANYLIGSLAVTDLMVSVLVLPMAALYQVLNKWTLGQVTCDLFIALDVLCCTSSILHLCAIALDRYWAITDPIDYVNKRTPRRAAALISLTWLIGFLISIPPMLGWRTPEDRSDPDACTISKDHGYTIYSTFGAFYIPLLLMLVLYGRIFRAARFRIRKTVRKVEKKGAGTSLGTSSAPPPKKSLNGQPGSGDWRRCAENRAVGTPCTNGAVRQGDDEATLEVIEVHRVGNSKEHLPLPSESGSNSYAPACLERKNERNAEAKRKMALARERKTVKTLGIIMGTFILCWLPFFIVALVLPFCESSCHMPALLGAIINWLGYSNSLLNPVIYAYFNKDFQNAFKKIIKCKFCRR
Source text: High affinity for the serotonin 5-HT1A receptor was established by testing the claimed compounds ability to displace [^3 H] 8-OHDPAT (dipropylaminotetralin) from the 5HT1A serotonin receptor following the procedure of Hall et al., J. Neurochem. 44 1685 (1985). […] The anxiolytic activity of buspirone is believed to be, at least partially, due to its 5-HT1A receptor affinity (Vander Maclen et al., Eur. J. Pharmacol. 1986, 129 (1-2) […].

[2] = target: T2, serotonin 5-HT1A receptor; details: in words; standard for anxiolytic activity; cited from earlier work

T1 sequence (P61169 whole entry): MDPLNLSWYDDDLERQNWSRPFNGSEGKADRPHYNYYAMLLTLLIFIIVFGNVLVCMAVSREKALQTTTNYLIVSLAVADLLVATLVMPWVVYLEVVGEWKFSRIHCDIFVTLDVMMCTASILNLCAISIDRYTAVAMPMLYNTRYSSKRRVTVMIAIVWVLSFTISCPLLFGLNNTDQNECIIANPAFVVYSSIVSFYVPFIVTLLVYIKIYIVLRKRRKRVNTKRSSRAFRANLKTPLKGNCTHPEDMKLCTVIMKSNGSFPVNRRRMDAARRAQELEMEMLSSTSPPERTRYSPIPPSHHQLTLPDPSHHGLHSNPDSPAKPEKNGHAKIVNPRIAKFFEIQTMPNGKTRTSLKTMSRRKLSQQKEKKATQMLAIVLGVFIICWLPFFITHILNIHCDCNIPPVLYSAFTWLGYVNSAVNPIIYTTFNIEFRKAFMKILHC

| SMILES | inhibition at 1 µM (dopamine D-2 receptor) [%] | inhibition at 1 µM ([1]; at 1 μM) [%] | further results |
| --- | --- | --- | --- |
| O=C1CC2(CCCC2)CC(=O)N1CCCCNCC1COc2ccccc2O1 (single isomer, unassigned) [-(MDL) 72832] |  |  | binding at the 5-HT1A receptor site relative to the dextro rotatory isomer (5-HT1A receptor; ratio to dextro rotatory isomer): 32 times |
| O=C1C2C(C(=O)N1CCCCNCC1COc3ccccc3O1)C1C3CC4C(C32)C41 (stereo not drawn) [Example 3, Exo-2-[4-[(2,3-dihydro-1,4-benzodioxan-2-ylmethyl)amino]butyl]octahydro-4,5,7-metheno-1H-pentaleno[1,2c]pyrrole-1,3(2H)-dione] |  |  | D-2 Binding (% Inhibition at 1 μM) (dopamine D-2 receptor; at 1 μM): 100%; 5-HT1A Binding (% Inhibition at 1 μM) ([1]; at 1 μM): 94% |
| O=C1C2C3C=CC(C4C=CC43)C2C(=O)N1CCCCNCC1COc2ccccc2O1 (stereo not shown) [Example 4, 2-[4-[(2,3-Dihydro-1,4-benzodioxan-2-ylmethyl)amino]butyl]hexahydro-4,7-etheno-1H-cyclobut[f]isoindole-1,3-(2H)-dione] | 100 | 100 |  |
| CC1(C)[C@@H]2CC[C@@]1(C)C(=O)N(CCNCC1COc3ccccc3O1)C2=O (stereo partly shown) [Example 6] | 61 |  | inhibition at 0.1 µM [1]: 52% |
| O=C1C2C3C=CC(C4C=CC43)C2C(=O)N1CCNCC1COc2ccccc2O1 (stereo not shown) [Example 7, 2-[2-[(2,3-Dihydro-1,4-benzodioxan-2-ylmethyl)amino]ethyl]hexahydro-4,7-etheno-1H-cyclobut[f]isoindole-1,3-(2H)-dione] | 54 |  | inhibition at 0.1 µM [1]: 92% |
| O=C1CC2(CCCC2)CC(=O)N1CCCCNCC1COc2ccccc2O1 (stereo not shown) [MDL 72832, 8-[4-(1,4-benzodioxan-2-ylmethylamino)butyl]-8-azaspiro[4.5]decane-7,9-dione] |  |  | 5-HT1A receptor ligand character (5-HT1A receptor; in words): selective and stereospecific |
| O=C1CC2(CCCC2)CC(=O)N1CCCCN1CCN(c2ncccn2)CC1 [buspirone] |  |  | affinity for the 5-HT1A serotonin receptor subtype [2]: potent affinity |

The next lines start with results.

| inhibition at 1 µM (dopamine D-2 receptor) [%] | inhibition at 1 µM ([1]; at 1 μM) [%] | SMILES | further results |
| --- | --- | --- | --- |
| 100 | 96 | O=C1C2CC(C(=O)N1CCCCNCC1COc3ccccc3O1)C1C2C2C3CC4C2C4C31 (stereo not shown) [Example 1, Decahydro-3-[4-[(2,3-dihydro-1,4-benzodioxan-2-ylmethyl)amino]butyl]-1,5-methano-6,7,9-metheno-2H-pentaleno[1,2-d]azepine-2,4(3H)-dione] |  |
| 100 | 96 | O=C1C2C(C(=O)N1CCCCNCC1COc3ccccc3O1)C1C3CC4C(C32)C41 (stereo not drawn) [Example 2, Endo-2-[4-[(2,3-dihydro-1,4-benzodioxan-2-ylmethyl)amino]butyl]octahydro-4,5,7-metheno-1H-pentaleno[1,2-c]pyrrole-1,3(2H)-dione] |  |
| 100 | 100 | O=C1C2C3C=CC(C4CC34)C2C(=O)N1CCCCNCC1COc2ccccc2O1 (stereo not shown) [Example 5] |  |
| 89 |  | O=C1C2CC(C(=O)N1CCNCC1COc3ccccc3O1)C1C2C2C3CC4C2C4C31 (stereo not shown) [Example 8, Decahydro-3-[2-[(2,3-dihydro-1,4-benzodioxan-2-ylmethyl)amino]ethyl]-1,5-methano-6,7,9-metheno-2H-pentaleno[1,2d]azepine-2,4(3H)-dione] | inhibition at 0.1 µM [1]: 100% |
